# Results: ChEMBL document CHEMBL4364251, “Design, synthesis and biological evaluation of new quinoline derivatives as potential antitumor agents” (Eur J Med Chem, 2019)
# Activity calls are given as the source filed them. No cut-off for these calls is given here.
# Key:
# HCT-116 [1] = experiment: Induction of apoptosis in human HCT116 cells assessed as necrotic cells at 4 uM incubated for 24 hrs in presence of pan-caspase inhibitor z-VAD-FMK by annexin-V-FITC/PI staining based FACS analysis (reference value: 0.6%); assay type: functional
# HCT-116 [2] = experiment: Induction of apoptosis in human HCT116 cells assessed as viable cells at 8 uM incubated for 24 hrs in presence of pan-caspase inhibitor z-VAD-FMK by annexin-V-FITC/PI staining based FACS analysis (reference value: 85.28%); assay type: functional; details: HCT-116, 24 h, read-out: Activity
# HCT-116 [3] = experiment: Induction of autophagy in human HCT116 cells expressed with LC3B-EGFP-mCheery assessed as LC3 assembly on membrane of autophagosome incubated for 24 hrs by DAPI staining based confocal microscopic method; assay type: functional, cell-based
# HeLa = experiment: Antiproliferative activity against human HeLa cells incubated for 48 hrs by MTT assay; assay type: functional, cell-based
# RKO [4] = experiment: Antiproliferative activity against human RKO cells incubated for 48 hrs by MTT assay; assay type: functional, cell-based
# HCT-116 [5] = experiment: Induction of autophagy in human HCT116 cells assessed as increase in LC3B-2 protein expression level incubated for 24 hrs by Western blot analysis; assay type: functional, cell-based
# HCT-116 [6] = experiment: Induction of apoptosis in human HCT116 cells assessed as early apoptotic cells at 8 uM incubated for 24 hrs by annexin-V-FITC/PI staining based FACS analysis (reference value: 1.77 to 3.38%); assay type: functional
# HCT-116 [7] = experiment: Induction of apoptosis in human HCT116 cells assessed as viable cells at 8 uM incubated for 24 hrs by annexin-V-FITC/PI staining based FACS analysis (reference value: 94.35 to 94.43%); assay type: functional; details: HCT-116, 24 h, read-out: Activity
# HCT-116 [8] = experiment: Induction of apoptosis in human HCT116 cells assessed as necrotic cells at 8 uM incubated for 24 hrs by annexin-V-FITC/PI staining based FACS analysis (reference value: 0.71 to 2.26%); assay type: functional
# HCT-116 [9] = experiment: Induction of apoptosis in human HCT116 cells assessed as early apoptotic cells incubated for 24 hrs by annexin-V-FITC/PI staining based FACS analysis; assay type: functional, cell-based
# A549 = experiment: Antiproliferative activity against human A549 cells incubated for 48 hrs by MTT assay; assay type: functional, cell-based; details: A549, 48 h
# HCT-116 [10] = experiment: Induction of apoptosis in human HCT116 cells assessed as necrotic cells at 4 uM incubated for 24 hrs by annexin-V-FITC/PI staining based FACS analysis (reference value: 0.71 to 2.26%); assay type: functional
# HCT-116 [11] = experiment: Induction of morphological changes in human HCT116 cells assessed as reduction in cell number at 4 to 10 uM incubated for 24 hrs by phase-contrast microscopic method; assay type: functional, cell-based
# HCT-116 [12] = experiment: Induction of apoptosis in human HCT116 cells assessed as early apoptotic cells at 4 uM incubated for 24 hrs by annexin-V-FITC/PI staining based FACS analysis (reference value: 1.77 to 3.38%); assay type: functional
# HCT-116 [13] = experiment: Induction of apoptosis in human HCT116 cells assessed as increase in cleaved PARP protein expression level at 4 to 8 uM incubated for 24 hrs by Western blot analysis; assay type: functional, cell-based
# HCT-116 [14] = experiment: Induction of autophagy in human HCT116 cells assessed as increase in LC3B-2 protein expression level at 6 uM by Western blot analysis; assay type: functional, cell-based; details: TDE = time-dependent effect
# RKO [15] = experiment: Inhibition of colony formation in human RKO cells incubated for 24 hrs followed by compound washout and subsequent incubation for 10 to 14 days by crystal violet staining based assay; assay type: functional, cell-based
smiles,measurement,setting,value
COc1cccc(Nc2ccnc3cc(OCCCc4ccccc4)ccc23)c1,Activity,HCT-116 [1],1.3%
same,viability at 8 µM,HCT-116 [2],62.9%
same,Activity,HCT-116 [3],Dose-dependent effect
same,IC50,HeLa,2.71 µM
same,IC50,RKO [4],3.67 µM
same,Activity,HCT-116 [5],Dose-dependent effect
same,Activity,HCT-116 [6],17.9 - 18.35%
same,viability at 8 µM,HCT-116 [7],60.5 to 62.2%
same,Activity,HCT-116 [8],2.19 - 5.82%
same,Activity,HCT-116 [9],Dose-dependent effect
same,IC50,A549,8.22 µM
same,Activity,HCT-116 [10],0.95%
same,Activity,HCT-116 [11],Active
same,Activity,HCT-116 [12],11.97%
same,Activity,HCT-116 [13],Active
same,Activity,HCT-116 [14],Tde
same,inhibition,RKO [15],Dose-dependent effect
